Square brackets hold non-standard residues; d marks the D form. Ends that are not written are not given here. pS = N[C@@H](COP(=O)(O)O)C(=O)O; Ahx = NCCCCCC(=O)O

Experiment [1] has as its system SGC7901 cells. Briefly: Western Blot of PARP-1 in SGC7901 cells. The experiment is classed as cell-based. The conditions noted are these: CPP-1 and ATO combined action group versus other groups. Here is the method: The combined effect of ATO and polypeptide JWA-6 on the self-destruction of protein expression was also determined A375 cells in the logarithmic phase of growth were conventionally digested and 5×10^5 cells were inoculated evenly in a 60 mm cell culture dish, and different doses of ATO were used to individually treat the cells for 24 hrs, or different doses of ATO in combination with different doses of polypeptide JWA-6 were used to treat the cells for 24 hrs, after which 0.18 mL of RIPA lysis buffer containing 0.5% phenylmethanesulfonyl fluoride (PMSF) was added to extract protein. After centrifugation at 12000×g for 15 minutes, the supernatant was taken, protein concentration was examined. Based on the molecular weight measured, a polyacrylamide gel having a suitable concentration was chosen for protein electrophoresis where each well was added with […] of protein, and the conditions for electrolysis were 60 V, 30 minutes and 90 V, 1-1.5 hrs. After completion of the electrolysis, semi-dry transfer was performed to transfer the protein from the gel onto a polyvinylidene difluoride (PVDF) membrane. After completion of the transfer, the membrane was blocked with 5% skim milk at room temperature for 1-2 hrs. Then, the membrane was washed 3 times (each lasting 5 minutes) using Tris-buffered Saline with Tween (TBST) containing 0.1% Tween-20, and incubation of the corresponding antibody was performed overnight at 4° C. On the next day, membrane was washed 3 times (each lasting 5 minutes) using Tris-buffered Saline with Tween (TBST) containing 0.1% Tween-20; incubation of secondary antibody was performed at room temperature for 1-2 hrs; and again membrane was washed 8 times (each lasting 5 minutes) using Tris-buffered Saline with Tween (TBST) containing 0.1% Tween-20. The membrane was added with enhanced chemiluminescence (ECL) liquid and exposed. […]

Experiment [2] concerns SGC7901 cells. Briefly: Annexin V-PE/7-AAD flow cytometry of apoptosis in SGC7901 cells. The experiment is classed as cell-based. The source says:
Six groups with different treatment methods directed against SGC7901 cells were designed: blank control group; transfection Flag-control group; transfection Hag-JWA group; transfection Flag-JWA and ATO combined treatment group; ATO treatment group; and polypeptide CPP-1 and ATO combined treatment group. After 24 hrs of treatment for each group, Annexin V-PE/PI flow cytometry was used to examine apoptosis and Western Blot was used to detect the level of PARP-1. […]
In normal cells, phosphatidyl serine (PS) are distributed on the inside of cell membrane lipid bilayer, and at the early stage of apoptosis the phosphatidyl serine (PS) in cell membranes is turned over from the inside of lipid membrane to the outside thereof. […] Annexin V was labeled with fluorescein phycoerythrin (PE); fluorescence microscopy or flow cytometry could be employed to examine apoptosis with the labeled Annexin V used as a fluorescent probe. […] Cells were divided into three group by the fluorescence intensity of 7-AAD labeling DNA: strong fluorescence of 7-AAD indicates dead cells, weak fluorescence of 7-AAD indicates apoptotic cells, and undetectable fluorescence of 7-AAD indicates normal active cells. […]

The test system of experiment [3] is B16 cells. The experiment is described as follows: Western Blot of PARP-1 in B16 cells. The experiment is classed as cell-based. The conditions noted are these: JWA-6 in combination with ATO, 24 hrs.
The test system of experiment [4] is Human Melanoma A375 Cells. Briefly: Cell proliferation with CCK8 reagent, A375 cells. The experiment is classed as cell-based. The conditions noted are these: 0-50 μM, 24, 48 and 72 hrs, in comparison with the control group. Here is the method:
(§1) B16F10 or A375 cells in the logarithmic phase of growth were trypsinized and seeded in a 96-well plate (5×10^3 cells/well), and were treated with different doses (0 μM, 5 μM, 10 μM, 25 μM, 50 μM) of polypeptide JWA-1, JWA-5, JWA-6 or non-pep (the polypeptide sequence used was the same as Example 3) for 24 hrs, 48 hrs and 72 hrs, respectively. The original culture medium was removed from the 96 wells at the indicated time and cell proliferation was determined with CCK8 reagent according to the manufacturer's instructions. Four duplicate samples were taken from each group and the experiments were repeated for three times.

The subject of experiment [5] is Mouse Melanoma B16F10 Cells. The experiment is described as follows: Cell proliferation with CCK8 reagent, B16F10 cells. The experiment is classed as cell-based. The conditions noted are these: 0-50 μM, 24, 48 and 72 hrs, in comparison with the control group. Here is the method: as §1
Experiment [6] concerns human melanoma A375 cells. Briefly: Human melanoma A375 subcutaneous xenograft in NOD/SCID mice, intraperitoneal injection of polypeptides. The experiment is classed as in vivo. The conditions noted are these: Example 5; 50 mg/kg intraperitoneal, alternate days, 5 times. The source says: The polypeptide designed and synthesized in this example was JWA-6+RGD whose sequence was SEQ ID NO: 7, i.e. 6-aminocaproic acid-FPGSDRF-GGGG-RGD, wherein amino acid S was phosphorylated. In addition, the N-terminus of the polypeptide sequence was acetylated and the C-terminus thereof was amidated during synthesis to prevent rapid degradation of the polypeptide. In this example, non-obese diabetic/severe combined immunodeficiency (NOD/SCID) mice were chosen for tumor-bearing model and the method for dorsal subcutaneous tumor bearing by inoculation of human melanoma A375 cells is the same as Example 2. The mice were randomly divided into four treatment groups after the tumors grew to a volume of about 100 mm^3. […]
Then, 50 mg/kg polypeptide JWA-6, 10 mg/kg polypeptide JWA-6+RGD, 50 mg/kg polypeptide JWA-6+RGD, and 50 mg/kg non-pep (the polypeptide sequence used was the same as Example 3) were injected intraperitoneally. The various groups were administered with injection on alternate days for 5 times consecutively; and the body weight of the mice and their tumor diameters were measured at each administration. After completion of the experiment the mice were sacrificed after anesthesia, tumors were separated from the bodies and the tumor weights measured.
Thereafter, the tumor bearing mice were obtained using the foregoing method of this example and divided into seven injection groups which were intraperitoneally injected with polypeptides JWA-6+RGD, JWA-6+RGD0, JWA-6+RGD1, JWA-6+RGD3, JWA-6+RGD7, JWA-6+RGD10, and non-pep (the polypeptide sequence used was the same as Example 3) at a dose of 50 mg/kg. The various groups were administered by intraperitoneal injection on alternate days for 5 times consecutively; and the body weight of the mice and their tumor diameters were measured at each administration. The day of first administration was taken as the first day, and the experiment was stopped on the twelfth day when the mice were sacrificed after anesthesia, and tumors were separated from the bodies and the tumor weights were measured.

For experiment [7], the system named is A375 cells. The experiment is described as follows: Western Blot of apoptosis-related molecules (PARP-1, caspase-3) in A375 cells. The note with it: JWA-6 in combination with ATO, 24 hrs; compared to untreated group and ATO alone. The experiment is classed as cell-based, human. On the procedure:
The combined effect of ATO and polypeptide JWA-6 on the self-destruction of protein expression was also determined A375 cells in the logarithmic phase of growth were conventionally digested and 5×10^5 cells were inoculated evenly in a 60 mm cell culture dish, and different doses of ATO were used to individually treat the cells for 24 hrs, or different doses of ATO in combination with different doses of polypeptide JWA-6 were used to treat the cells for 24 hrs, after which 0.18 mL of RIPA lysis buffer containing 0.5% phenylmethanesulfonyl fluoride (PMSF) was added to extract protein. After centrifugation at 12000×g for 15 minutes, the supernatant was taken, protein concentration was examined. Based on the molecular weight measured, a polyacrylamide gel having a suitable concentration was chosen for protein electrophoresis where each well was added with […] of protein, and the conditions for electrolysis were 60 V, 30 minutes and 90 V, 1-1.5 hrs. After completion of the electrolysis, semi-dry transfer was performed to transfer the protein from the gel onto a polyvinylidene difluoride (PVDF) membrane. After completion of the transfer, the membrane was blocked with 5% skim milk at room temperature for 1-2 hrs. Then, the membrane was washed 3 times (each lasting 5 minutes) using Tris-buffered Saline with Tween (TBST) containing 0.1% Tween-20, and incubation of the corresponding antibody was performed overnight at 4° C. On the next day, membrane was washed 3 times (each lasting 5 minutes) using Tris-buffered Saline with Tween (TBST) containing 0.1% Tween-20; incubation of secondary antibody was performed at room temperature for 1-2 hrs; and again membrane was washed 8 times (each lasting 5 minutes) using Tris-buffered Saline with Tween (TBST) containing 0.1% Tween-20. The membrane was added with enhanced chemiluminescence (ECL) liquid and exposed.
Polypeptide CPP-JWA-6 at a dose of 20 μM, 50 μM was applied individually and applied in combination with ATO (5 μM) on A375 cells (as shown in FIG. 40) and SGC7901 cells (as shown in FIG. 41) for 24 hrs before protein was extracted, and the Western Blot method of Example 7 was used to examine the changes in apoptosis-related molecules.

Experiment [8] concerns A375 cells. The experiment is described as follows: Cytoactivity of A375 cells treated with ATO alone or with polypeptides in combination with ATO. The experiment is classed as cell-based, human. Here is the method: Firstly, the dose and time for treatment of A375 cells with ATO were determined. A375 cells in the logarithmic phase of growth were conventionally digested and seeded in a 96-well plate (5×10^3 cells/well), and different doses (5 μM, 10 μM, 25 μM, 50 μM) of ATO were used to treat the cells for 24 hrs and 48 hrs after cell attachment. It was discovered that the activity of A375 cells was reduced by 40% after 24 hrs of treatment with 5 μM ATO (as shown in FIG. 24), and that the cell growth inhibition rate was approximately 100% after 48 hrs of treatment with different doses of ATO (as shown in FIG. 25). Therefore, ATO with a concentration smaller than or equal to 5 μM was chosen to treat the cells for 24 hrs for subsequent reference of dose and time for combined medication.

Experiment [9] has as its system SGC7901 gastric cancer cell. Briefly: Fluorescence of FITC-modified cell-penetrating peptides after entry into SGC7901 cells. The experiment is classed as cell-based. The note with it: 20 μM, 3 hrs. The source says:
To enable JWA functional polypeptides to effectively penetrate into tumor cells, four typical CPPs: R9, TAT, pep-1, 2K (see Table 3), and a blank control having only JWA-1 were selected, the cell-penetrating peptide (CPP) with the highest cell-penetrating effect, its optimal action concentration and optimal action time were selected from the cell model.
To facilitate the use of fluorescence microscopy to directly observe whether polypeptides have the ability to enter cells, the N-terminuses of the aforementioned sequences and JWA-1 were modified with fluorescein isothiocyanate (FITC) and the C-terminuses thereof were amidated.

For “6-aminocaproic acid-(R)9-FFPGSDRFA ([Ahx]RRRRRRRRRFFPG[pS]DRFA) [CPP-1]”, in experiment [1], the “expression of PARP-1 spliceosome” value is recorded as “higher than those of other groups”. In addition, the apoptosis rate in [2] (20 μM polypeptide 3 hrs, then 5 μM ATO 24 hrs (combined action group)) stood at 55.76%.

As to “6-aminocaproic acid-FPGSDRF ([Ahx]FPG[pS]DRF) [JWA-6]”, the “changes of PARP-1” value in [3] is given as “changes of PARP-1 were also seen”. Further, the “inhibition effect on A375 cells” value in experiment [4] is reported as “no inhibition effect”. Also, the “inhibition effect on B16F10 cells” value in experiment [5] was “no inhibition effect”. The tumor inhibition effect entry in experiment [6] is given as “a certain degree of tumor inhibition effect”. In addition, in experiment [7], the “cleaved PARP-1” value is on record as “significantly increased” and the “cleaved caspase-3” value is recorded as “significantly increased”. The “cytoactivity of A375 cells, combined use with ATO” value in experiment [8] (polypeptide 50-500 μM in combination with ATO 0.5-5 μM, 24 and 48 hrs) is “obvious toxicity”.

Take “6-aminocaproic acid-RRRRRRRRR ([Ahx]RRRRRRRRR) [R9, cell-penetrating peptide (CPP)]”: in [9], the “fluorescence after entry into cells, differences between R9 group and other groups” value is on record as “the most significant”.

In turn, “arsenic trioxide [ATO, reference compound]” gave an apoptosis rate in [2] (pure ATO treatment group, 24 hrs) of 24.69%. In addition, in experiment [8] (5 μM ATO alone, 24 hrs), the “activity of A375 cells reduced by” value was determined as 40%. In addition, the “cell growth inhibition rate” value in [8] (ATO alone, different doses (5, 10, 25, 50 μM), 48 hrs) is “approximately 100%”.

(Values after patent US9745345B2, “Anti-tumor polypeptides and method for preparing anti-tumor drugs comprisng the same” (priority 2013, dated 2017).)
